Results reported in ChEMBL document CHEMBL5674860, “Optimized Dual-Glo Assay to identify co-culture-induced drug vulnerabilities in 3D CRC models” (2024).

What was measured:
Assay type in all cases: functional, Homo sapiens
Design in all cases: dose or concentration left out as unconfirmed
Colon cancer organoid [1] = assay: Optimized Dual-Glo assay to identify co-culture induced drug vulnerabilities using donated chemical probes and chemogenomics kinase set in O06 CRC organoid and F06 CAF mono and co-culture. […] Cell viability is reported both mono and co-culture models.
Colon cancer organoid [2] = assay: Optimized Dual-Glo assay to identify co-culture induced drug vulnerabilities using donated chemical probes and chemogenomics kinase set in O14 CRC organoid and F14 CAF mono and co-culture. […] Cell viability is reported both mono and co-culture models.
Colon cancer organoid [3] = assay: Optimized Dual-Glo assay to identify co-culture induced drug vulnerabilities using donated chemical probes and chemogenomics kinase set in O20 CRC organoid and F20 CAF mono and co-culture. […] Cell viability is reported both mono and co-culture models.
[4] = Culture type Co-Culture, Transduced with Lucferase2-P2A-EGFP lentivirus
[5] = Culture type Co-Culture, Transduced with Renilla-dsRed lentivirus
[6] = Culture type Mono-Culture, Transduced with Lucferase2-P2A-EGFP lentivirus
[7] = Culture type Mono-Culture, Transduced with Renilla-dsRed lentivirus

SMILES | Cell Viability (Colon cancer organoid [1]; [4]) [%] | Cell Viability (Colon cancer organoid [1]; [5]) [%] | Cell Viability (Colon cancer organoid [1]; [6]) [%] | Cell Viability (Colon cancer organoid [1]; [7]) [%] | Cell Viability (Colon cancer organoid [2]; [4]) [%] | Cell Viability (Colon cancer organoid [2]; [5]) [%] | Cell Viability (Colon cancer organoid [2]; [6]) [%] | Cell Viability (Colon cancer organoid [2]; [7]) [%] | Cell Viability (Colon cancer organoid [3]; [4]) [%] | Cell Viability (Colon cancer organoid [3]; [5]) [%] | Cell Viability (Colon cancer organoid [3]; [6]) [%] | Cell Viability (Colon cancer organoid [3]; [7]) [%]
CN(C)C(=O)Cn1cc(-c2ccc(-c3nnc4ccccn34)cc2)cn1 | 105.212 | 110.192 | 69.5948 | 88.4504 | 93.0602 | 86.1026 | 137.129 | 87.3202 | 165.558 | 52.6743 | 140.63 | 85.2439
CCC(F)(F)c1cc(N2CCC(S(C)(=O)=O)CC2)nc2sc(C(N)=O)c(N)c12 [BI-605906] | 93.6384 | 92.3898 | 93.147 | 102.109 | 108.411 | 90.1855 | 95.9322 | 83.0517 | 178.631 | 81.0914 | 102.635 | 91.2338
Cn1cc(C2=C(c3cn(C4CCN(Cc5ccccn5)CC4)c4ccccc34)C(=O)NC2=O)c2ccccc21 [ENZASTAURIN] | 65.6638 | 92.7001 | 58.602 | 101.572 | 77.4844 | 94.2381 | 86.5336 | 83.0179 | 54.9568 | 78.6109 | 53.3905 | 66.2903
Cc1ccc(NC(=O)Nc2cc(C(F)(F)F)ccc2F)cc1Nc1ccc2c(c1)NC(=O)/C2=C\c1ccc[nH]1 | 112.777 | 121.077 | 144.763 | 85.6075 | 100.84 | 80.7866 | 148.906 | 94.1932 | 98.8429 | 67.3177 | 149.041 | 99.6693
COc1cc(-c2cn([C@H]3CCc4ccccc4N(CC(F)(F)F)C3=O)nn2)ccc1-n1ccc(C)n1 | 93.4988 | 122.107 | 86.5665 | 106.482 | 109.774 | 96.1466 | 102.384 | 99.9901 | 70.0794 | 119.033 | 80.8006 | 95.6811
CN(C)c1ncnc(-c2ccc3nc(Nc4cc(CN5CCN(C(=O)CC(F)(F)F)CC5)ccn4)[nH]c3c2)c1Cl [BAY-440] | 92.9994 | 174.385 | 85.2405 | 88.7418 | 103.771 | 112.238 | 114.79 | 113.849 | 123.006 | 109.622 | 117.784 | 126.413
O=C(NC[C@@H]1[C@H]2CN(C(=O)OCc3cc(C(F)(F)F)cc(C(F)(F)F)c3)C[C@@H]12)c1ccc2[nH]nnc2c1 [BI 2545] | 124.688 | 144.467 | 99.0945 | 89.0013 | 75.1961 | 105.32 | 137.829 | 80.7794 | 135.058 | 115.933 | 103.58 | 122.062
Nc1nc(NCc2ccccc2)nc(-c2ccccc2CO)n1 [Ogerin] | 100.001 | 107.856 | 82.0596 | 96.3715 | 77.8704 | 129.106 | 105.546 | 105.714 | 80.9307 | 98.0569 | 82.507 | 92.5232
CCc1cccc(CC)c1NC(=O)c1nn(C)c2c1CCc1cnc(Nc3ccc(C(=O)NC4CCN(C)CC4)cc3OC(F)(F)F)nc1-2 | 8.756 | 150.393 | 5.577 | 91.0019 | 20.0347 | 229.301 | 20.3776 | 93.7404 | 94.4005 | 107.437 | 25.0865 | 90.076
CC(=O)N1CCC(c2ccc(C(=O)NC3=NCCN3)cc2C(F)(F)F)CC1 [BI 0054] | 128.003 | 143.254 | 114.863 | 104.942 | 129.436 | 116.761 | 105.472 | 102.083 | 121.714 | 122.015 | 116.125 | 107.845
CN1CCN(Cc2cc(NC(=O)c3ccc4c(c3)CN(c3ccccc3)CC4)cc(C(F)(F)F)c2)CC1 | 103.855 | 89.7391 | 108.49 | 105.467 | 99.7753 | 107.038 | 129.235 | 97.9505 | 90.0307 | 84.0381 | 92.4079 | 96.3902
Cc1cnc(Nc2ccc(F)cc2Cl)nc1-c1c[nH]c(C(=O)N[C@H](CO)c2cccc(Cl)c2)c1 | 51.8597 | 63.6391 | 9.819 | 57.8689 | 10.9302 | 34.4005 | 7.352 | 19.5504 | 6.951 | 113.857 | 5.763 | 41.0342
CC(=O)Nc1c(F)cc(C(=O)N[C@H]2CC[C@H](O)CC2)cc1O[C@@H](C)c1ccccc1 [GSK046] | 141.493 | 157.689 | 89.308 | 140.24 | 94.8329 | 149.721 | 98.5047 | 138.141 | 117.929 | 118.66 | 59.393 | 129.379
Cn1cc(CNCC2CCN(c3ncc(C(=O)NO)cn3)CC2)c2ccccc21 [QUISINOSTAT] | 1.095 | 190.694 | 6.147 | 20.2291 | 0.9193 | 88.4975 | 0.7655 | 72.0368 | 1.342 | 37.1921 | 2.078 | 3.907
